Experimental data: ChEMBL document CHEMBL1201862, “PubChem BioAssay data set” (2004)
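Briefly, cells in 96-well plates were exposed to five compound concentrations for 48 h, and endpoints were estimated by linear interpolation. GI50 = concentration required for 50% inhibition of growth.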 Activity calls are given as the source filed them. Cut-off read from the data, not from the text of the source: active = GI50 up to about 1.1 µM and inactive = higher.

Legend:
Test in all cases: growth of human tumour cells (NCI), 48 h
NCI-H23 = system: NCI-H23
CAKI-1 = system: CAKI-1
HOP-92 = system: HOP-92
RXF 631 = system: RXF 631
SNB-19 = system: SNB-19
SK-MEL-28 = system: SK-MEL-28
786-0 = system: 786-0
SNB-75 = system: SNB-75
HCT-15 = system: HCT-15
RPMI-8226 = system: RPMI-8226
OVCAR-3 = system: OVCAR-3
RXF 393 = system: RXF 393
HCT-116 = system: HCT-116
K562 = system: K562
SK-MEL-5 = system: SK-MEL-5
M19-MEL = system: M19-MEL
HL-60 = system: HL-60
M14 = system: M14
IGROV-1 = system: IGROV-1
SF-295 = system: SF-295
A498 = system: A498
SK-OV-3 = system: SK-OV-3
DLD-1 = system: DLD-1
MOLT-4 = system: MOLT-4
UACC-257 = system: UACC-257
NCI-H460 = system: NCI-H460
CCRF-CEM = system: CCRF-CEM
LXFL 529 = system: LXFL 529
SNB-78 = system: SNB-78
OVCAR-4 = system: OVCAR-4
HOP-18 = system: HOP-18
LOX IMVI = system: LOX IMVI
SN12C = system: SN12C
COLO 205 = system: COLO 205
XF498 = system: XF498
U-251 = system: U-251
SF-539 = system: SF-539
OVCAR-8 = system: OVCAR-8
HT-29 = system: HT-29
EKVX = system: EKVX
ACHN = system: ACHN
SW-620 = system: SW-620
HCC 2998 = system: HCC 2998
UACC-62 = system: UACC-62
A549 = system: A549
KM-20L2 = system: KM-20L2
TK-10 = system: TK-10
HOP-62 = system: HOP-62
DMS-273 = system: DMS-273
SK-MEL-2 = system: SK-MEL-2
SR = system: SR
Malme-3M = system: Malme-3M
DMS-114 = system: DMS-114
UO-31 = system: UO-31
KM12 = system: KM12
NCI-H522 = system: NCI-H522
NCI-H226 = system: NCI-H226
SF-268 = system: SF-268
OVCAR-5 = system: OVCAR-5

COc1ccc(C(c2ccc(C(C)C)cc(=O)c2O)c2c(O)cc3oc(-c4ccccc4)cc(=O)c3c2O)cc1 (configuration not stated)
GI50 (NCI-H23): 4.79 µM (inactive)
GI50 (CAKI-1): 9.04 µM (inactive)
GI50 (HOP-92): < 0.01 µM (active)
GI50 (RXF 631): 11.3 µM (inactive)
GI50 (SNB-19): 4.14 µM (inactive)
GI50 (SK-MEL-28): 17.1 µM (inactive)
GI50 (786-0): 3.57 µM (inactive)
GI50 (SNB-75): 4.51 µM (inactive)
GI50 (HCT-15): 6.9 µM
GI50 (RPMI-8226): 6.21 µM (inactive)
GI50 (OVCAR-3): 5.86 µM (inactive)
GI50 (RXF 393): 3.71 µM (inactive)
GI50 (HCT-116): 2.81 µM (inactive)
GI50 (K562): 3.03 µM (inactive)
GI50 (SK-MEL-5): 11.5 µM (inactive)
GI50 (M19-MEL): 7.33 µM (inactive)
GI50 (HL-60): 4.4 µM (inactive)
GI50 (M14): 7.26 µM (inactive)
GI50 (IGROV-1): 3.91 µM (inactive)
GI50 (SF-295): 4.93 µM (inactive)
GI50 (A498): 18.6 µM (inactive)
GI50 (SK-OV-3): 12.5 µM (inactive)
GI50 (DLD-1): 4.11 µM (inactive)
GI50 (MOLT-4): 5.73 µM (inactive)
GI50 (UACC-257): 27.4 µM (inactive)
GI50 (NCI-H460): 3.37 µM (inactive)
GI50 (CCRF-CEM): 4.04 µM (inactive)
GI50 (LXFL 529): 14 µM (inactive)
GI50 (SNB-78): 20.8 µM (inactive)
GI50 (OVCAR-4): 7.53 µM (inactive)
GI50 (HOP-18): 17.3 µM (inactive)
GI50 (LOX IMVI): 14.6 µM (inactive)
GI50 (SN12C): 16.5 µM (inactive)
GI50 (COLO 205): 9.79 µM (inactive)
GI50 (XF498): 9.4 µM (inactive)
GI50 (U-251): 6.43 µM (inactive)
GI50 (SF-539): 3.05 µM (inactive)
GI50 (OVCAR-8): 6.9 µM (inactive)
GI50 (HT-29): 17.7 µM (inactive)
GI50 (EKVX): 12.6 µM (inactive)
GI50 (ACHN): 4.21 µM (inactive)
GI50 (SW-620): 14.5 µM (inactive)
GI50 (HCC 2998): 3.58 µM (inactive)
GI50 (UACC-62): 6.65 µM (inactive)
GI50 (A549): 3.35 µM (inactive)
GI50 (KM-20L2): 9.82 µM (inactive)
GI50 (TK-10): 9.42 µM (inactive)
GI50 (HOP-62): 2.07 µM (inactive)
GI50 (DMS-273): 5.08 µM (inactive)

CCCN(CCCN)/[N+]([O-])=N\O
GI50 (SK-MEL-2): > 100 µM (inactive)
GI50 (SR): > 100 µM (inactive)
GI50 (NCI-H23): > 100 µM (inactive)
GI50 (CAKI-1): > 100 µM (inactive)
GI50 (HOP-92): > 100 µM (inactive)
GI50 (Malme-3M): > 100 µM (inactive)
GI50 (RXF 631): > 100 µM (inactive)
GI50 (SNB-19): > 100 µM (inactive)
GI50 (SK-MEL-28): > 100 µM (inactive)
GI50 (786-0): > 100 µM (inactive)
GI50 (SNB-75): > 100 µM (inactive)
GI50 (HCT-15): > 100 µM
GI50 (RPMI-8226): > 100 µM (inactive)
GI50 (OVCAR-3): > 100 µM (inactive)
GI50 (DMS-114): > 100 µM (inactive)
GI50 (RXF 393): > 100 µM (inactive)
GI50 (HCT-116): > 100 µM (inactive)
GI50 (K562): > 100 µM (inactive)
GI50 (SK-MEL-5): > 100 µM (inactive)
GI50 (UO-31): > 100 µM (inactive)
GI50 (M19-MEL): > 100 µM (inactive)
GI50 (HL-60): > 100 µM (inactive)
GI50 (M14): > 100 µM (inactive)
GI50 (IGROV-1): > 100 µM (inactive)
GI50 (SF-295): > 100 µM (inactive)
GI50 (KM12): > 100 µM (inactive)
GI50 (SK-OV-3): > 100 µM (inactive)
GI50 (DLD-1): > 100 µM (inactive)
GI50 (MOLT-4): > 100 µM (inactive)
GI50 (UACC-257): > 100 µM (inactive)
GI50 (NCI-H460): > 100 µM (inactive)
GI50 (CCRF-CEM): > 100 µM (inactive)
GI50 (LXFL 529): > 100 µM (inactive)
GI50 (NCI-H522): > 100 µM (inactive)
GI50 (SNB-78): > 100 µM (inactive)
GI50 (OVCAR-4): > 100 µM (inactive)
GI50 (HOP-18): > 100 µM (inactive)
GI50 (SN12C): > 100 µM (inactive)
GI50 (COLO 205): > 100 µM (inactive)
GI50 (U-251): > 100 µM (inactive)
GI50 (SF-539): > 100 µM (inactive)
GI50 (OVCAR-8): > 100 µM (inactive)
GI50 (HT-29): > 100 µM (inactive)
GI50 (NCI-H226): > 100 µM (inactive)
GI50 (SF-268): > 100 µM (inactive)
GI50 (EKVX): 0.24 µM (active)
GI50 (ACHN): > 100 µM (inactive)
GI50 (SW-620): > 100 µM (inactive)
GI50 (HCC 2998): > 100 µM (inactive)
GI50 (OVCAR-5): > 100 µM (inactive)
GI50 (UACC-62): 0.195 µM (active)
GI50 (A549): > 100 µM (inactive)
GI50 (KM-20L2): 0.4 µM (active)
GI50 (HOP-62): > 100 µM (inactive)
GI50 (DMS-273): > 100 µM (inactive)

CCOC(=O)CCC(NC(=O)c1ccc(NCc2ccc3nc(-c4ccccc4)c(Cl)nc3c2)cc1)C(=O)OCC (configuration not stated)
GI50 (SK-MEL-2): 10.6 µM (inactive)
GI50 (SR): 13.5 µM (inactive)
GI50 (NCI-H23): 79.8 µM (inactive)
GI50 (CAKI-1): 30.6 µM (inactive)
GI50 (HOP-92): 9.95 µM (inactive)
GI50 (Malme-3M): 13 µM (inactive)
GI50 (RXF 631): 13.2 µM (inactive)
GI50 (SNB-19): 97.7 µM (inactive)
GI50 (SK-MEL-28): > 10 µM (inactive)
GI50 (786-0): 80.7 µM (inactive)
GI50 (SNB-75): 16.9 µM (inactive)
GI50 (HCT-15): 64.1 µM
GI50 (RPMI-8226): 18.2 µM (inactive)
GI50 (OVCAR-3): 17.2 µM (inactive)
GI50 (DMS-114): 22.4 µM (inactive)
GI50 (RXF 393): 48.9 µM (inactive)
GI50 (HCT-116): 40.7 µM (inactive)
GI50 (K562): 6.19 µM (inactive)
GI50 (SK-MEL-5): 11.3 µM (inactive)
GI50 (UO-31): 22.9 µM (inactive)
GI50 (M19-MEL): 17.4 µM (inactive)
GI50 (HL-60): 17.4 µM (inactive)
GI50 (M14): 16.4 µM (inactive)
GI50 (IGROV-1): 27.9 µM (inactive)
GI50 (SF-295): 76.2 µM (inactive)
GI50 (KM12): > 100 µM (inactive)
GI50 (A498): 24.5 µM (inactive)
GI50 (SK-OV-3): > 100 µM (inactive)
GI50 (DLD-1): 28.6 µM (inactive)
GI50 (MOLT-4): 9.25 µM (inactive)
GI50 (NCI-H460): 27.7 µM (inactive)
GI50 (CCRF-CEM): 25.6 µM (inactive)
GI50 (LXFL 529): 18.2 µM (inactive)
GI50 (NCI-H522): 19.5 µM (inactive)
GI50 (SNB-78): 32.4 µM (inactive)
GI50 (OVCAR-4): 20.9 µM (inactive)
GI50 (LOX IMVI): 26.1 µM (inactive)
GI50 (SN12C): 41.1 µM (inactive)
GI50 (COLO 205): 20.5 µM (inactive)
GI50 (XF498): 1.58 µM (inactive)
GI50 (U-251): 69.7 µM (inactive)
GI50 (SF-539): 35.8 µM (inactive)
GI50 (HT-29): > 100 µM (inactive)
GI50 (NCI-H226): 32.4 µM (inactive)
GI50 (SF-268): 53.8 µM (inactive)
GI50 (EKVX): 46.3 µM (inactive)
GI50 (ACHN): 37.9 µM (inactive)
GI50 (SW-620): > 100 µM (inactive)
GI50 (HCC 2998): 92.3 µM (inactive)
GI50 (OVCAR-5): > 100 µM (inactive)
GI50 (A549): 47.8 µM (inactive)
GI50 (KM-20L2): 80.5 µM (inactive)
GI50 (TK-10): 83.9 µM (inactive)
GI50 (HOP-62): > 100 µM (inactive)
GI50 (DMS-273): 21.4 µM (inactive)

CNC1CC(n2cc(C)c(=O)[nH]c2=O)OC1CO (configuration not stated)
GI50 (SK-MEL-2): > 100 µM (inactive)
GI50 (SR): > 100 µM (inactive)
GI50 (NCI-H23): > 100 µM (inactive)
GI50 (CAKI-1): > 100 µM (inactive)
GI50 (HOP-92): > 100 µM (inactive)
GI50 (Malme-3M): > 100 µM (inactive)
GI50 (RXF 631): > 100 µM (inactive)
GI50 (SK-MEL-28): > 100 µM (inactive)
GI50 (786-0): > 100 µM (inactive)
GI50 (SNB-75): > 100 µM (inactive)
GI50 (RPMI-8226): > 100 µM (inactive)
GI50 (DMS-114): > 100 µM (inactive)
GI50 (HCT-116): > 100 µM (inactive)
GI50 (K562): > 100 µM (inactive)
GI50 (UO-31): > 100 µM (inactive)
GI50 (M19-MEL): > 100 µM (inactive)
GI50 (HL-60): > 100 µM (inactive)
GI50 (M14): > 100 µM (inactive)
GI50 (IGROV-1): > 100 µM (inactive)
GI50 (A498): > 100 µM (inactive)
GI50 (SK-OV-3): > 100 µM (inactive)
GI50 (DLD-1): > 100 µM (inactive)
GI50 (MOLT-4): > 100 µM (inactive)
GI50 (CCRF-CEM): > 100 µM (inactive)
GI50 (LXFL 529): > 100 µM (inactive)
GI50 (NCI-H522): > 100 µM (inactive)
GI50 (OVCAR-4): > 100 µM (inactive)
GI50 (SN12C): > 100 µM (inactive)
GI50 (COLO 205): > 100 µM (inactive)
GI50 (XF498): > 100 µM (inactive)
GI50 (SF-539): > 100 µM (inactive)
GI50 (NCI-H226): > 100 µM (inactive)
GI50 (SF-268): > 100 µM (inactive)
GI50 (ACHN): > 100 µM (inactive)
GI50 (HCC 2998): > 100 µM (inactive)
GI50 (UACC-62): > 100 µM (inactive)
GI50 (HOP-62): > 100 µM (inactive)
GI50 (DMS-273): > 100 µM (inactive)
